Test results from PMC8642699, “Dipeptidyl peptidase-IV inhibitory action of Calebin A: An in silico and in vitro analysis” (Journal of Ayurveda and Integrative Medicine, 2021).

Molecular target: T1, Dipeptidyl peptidase-IV (DPP-IV) (Homo sapiens, UniProt P27487)
T1 construct: gene DPP4
Experiment: Fluorogenic enzyme inhibition assay (Cayman DPP-IV inhibitor screening kit […], Gly-Pro-AMC substrate)
Format: biochemical

T1 sequence (P27487 39-766): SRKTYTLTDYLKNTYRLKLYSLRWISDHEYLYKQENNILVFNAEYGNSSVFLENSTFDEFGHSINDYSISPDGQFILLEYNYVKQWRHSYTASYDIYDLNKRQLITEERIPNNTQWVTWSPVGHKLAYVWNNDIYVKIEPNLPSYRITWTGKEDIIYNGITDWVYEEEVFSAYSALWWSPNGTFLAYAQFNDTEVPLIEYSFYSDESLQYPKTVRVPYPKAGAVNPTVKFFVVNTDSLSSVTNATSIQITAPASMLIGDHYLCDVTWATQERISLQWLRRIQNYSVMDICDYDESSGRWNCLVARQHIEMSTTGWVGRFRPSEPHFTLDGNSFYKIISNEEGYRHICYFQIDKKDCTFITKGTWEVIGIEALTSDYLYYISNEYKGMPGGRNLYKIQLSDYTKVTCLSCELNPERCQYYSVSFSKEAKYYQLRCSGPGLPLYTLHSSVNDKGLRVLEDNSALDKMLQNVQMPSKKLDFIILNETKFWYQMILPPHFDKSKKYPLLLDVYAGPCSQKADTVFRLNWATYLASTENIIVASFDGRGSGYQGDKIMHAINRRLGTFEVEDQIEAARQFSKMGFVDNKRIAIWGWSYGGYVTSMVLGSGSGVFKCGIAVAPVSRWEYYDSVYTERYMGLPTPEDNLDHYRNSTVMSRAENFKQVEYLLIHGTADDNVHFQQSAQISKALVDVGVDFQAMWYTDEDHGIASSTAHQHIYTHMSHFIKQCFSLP

IC50: 6.09 ± 0.41 µM
SMILES: COc1cc(/C=C/C(=O)COC(=O)/C=C/c2ccc(O)c(OC)c2)ccc1O [CA, Calebin A]
